In patent publication US9023878B2 (Neurophyxia B.V., priority 2010, dated 2015):

What was measured:
[1] = Solubility of 2-IB in 10% SBE-CD at different pH adjusted with 0.1 M citric acid (HPLC); format: physicochemical
piglets = settings: versus allopurinol or deferoxamine; cited from earlier work

Compound: N=C1N[C@H]2[C@H](CS[C@H]2CCCCC(=O)O)N1 [Formulation 2-IB, 2-iminobiotin]
- solubility with pH-adjustment alone ([1]; pH 4.0, without SBE-CD): 1.72 mg/g
- solubility with pH-adjustment alone ([1]; pH 5.0, without SBE-CD): 0.59 mg/g
- effectiveness in preventing and/or treating effects of perinatal asphyxia (piglets): more effective
